Reference: publication PMC5007854, “β-Nitrostyrenes as Potential Anti-leishmanial Agents” (Frontiers in Microbiology, 2016)
≈ marks a conversion by molar mass, not a printed value. Where two headings read alike, the source gives them in different places.

Legend:
[1] = tested on: L. donovani intracellular amastigotes; test: Anti-amastigote activity in ex vivo macrophage model; format: cell-based, Leishmania donovani; settings: Leishmania donovani, Peritoneal macrophage, in Mus musculus; intracellular amastigotes in BALB/c peritoneal macrophages, 48 h; read-out: L. donovani amastigotes IC50 ± SEM
Excerpt: BALB/c mice was used for the isolation of peritoneal macrophages in the ex vivo anti-amastigote study after prior approval from the Jamia Hamdard Animal Ethics Committee (JHAEC). JHAEC is registered under the Committee for the purpose of supervision and control of experiments on animals (CPCSEA). Mice were individually housed in the Central Animal House of Jamia Hamdard as per internationally accepted norms. The mice were kept in standard size polycarbonate cages under controlled conditions of temperature (23 ± 1°C), humidity (55 ± 10%), 12:12 h of light and dark cycle and fed with standard pellet diet and filtered water (ad libitum).
Macrophages from the peritonial cavity of BALB/c mice (1 × 10^6 cellsml^−1) were allowed to adhere to round glass coverslips in a 24 well tissue culture plate and incubated for 12 h at 37°C in a CO2 incubator. After removal of the non-adherent macrophages, the cells were infected with stationary phase promastigotes using a cell to parasite ratio of 1:10 and incubated at 37°C for 24 h. The non-phagocytosed parasites were removed by washing, and the infected macrophages incubated with the test compounds 9, 12, 14, and 18 (0–25 μM) for an additional 48 h. The coverslips were fixed in methanol and giemsa-stained for microscopic evaluation (100X) of amastigote infectivity. Number of amastigotes per 100 macrophages were enumerated and the concentration that decreased amastigotes by 50% (IC50) was determined (Wong et al., [2012]; Islamuddin et al., [2014a]).
(§1) In vitro antileishmanial activity was expressed as IC50 by linear regression analysis. Values are mean ± SE of samples in triplicate from at least three independent experiments. Statistical analysis was performed using ANOVA followed by Dunnett's test. ^*P < 0.05, ^**P < 0.01 and ^***P < 0.001 compared with the untreated control group were considered significant.

[2] = tested on: L. donovani promastigotes; test: Leishmanicidal assay (growth reversion after wash-out); format: cell-based, Leishmania donovani; settings: 1 μM, 72 h treatment, then 72 h in fresh media
Description: To confirm the leishmanicidal effect of compounds 9, 12, 14, and 18, treated and untreated parasites (1 μM) after 72 h of incubation, were washed two times with fresh incomplete medium and finally resuspended in complete media, transferred back to 22°C and allowed to grow for 72 h. The viability of the parasites was determined microscopically (Afrin et al., [2001]).

[3] = tested on: L. donovani promastigotes; test: Dose-dependent anti-promastigote activity, IC50 and IC90; format: cell-based, Leishmania donovani; settings: for Anti-leishmanial activity, in words (compounds with IC50 determined): L. donovani promastigotes
Description: (§2) L. donovani parasites (MHOM/IN/83/AG83) were maintained in vivo in BALB/c mice. Promastigotes were routinely cultured at 22°C in medium M199 supplemented with 10% heat inactivated fetal bovine serum (FBS, HiMedia Laboratories, Mumbai, India), penicillin 100 (IU/ml), streptomycin (100 μg/ml). Log phase promastigotes were sub-cultured every 72–96 h, the inoculum being 2 × 10^6 cells/ml (Afrin et al., [2002]).
AmB was used as a standard antileishmanial drug control. The cell viability was evaluated by microscopically and the mean percentage viability was calculated as follows: Mean cell number of treated parasites / Mean cell number of untreated parasites × 100. The 50 and 90% inhibitory concentration (IC50 and IC90) i.e., the concentration of drugs that decreased the cell growth by 50 and 90% respectively was determined by graphical extrapolation after plotting the graph of % viability vs. concentration of drug (Islamuddin et al., [2014b]).
as §1

[4] = tested on: Aspergillus niger ATCC 16404; test: Broth microdilution antifungal susceptibility (MIC/MFC); format: cell-based; settings: for MIC / MFC: Aspergillus niger; for MIC: ATCC16404, 48 h, read-out: MIC, An ATCC 16404; for MFC: ATCC16404, ≥99.9% reduction of original inoculum, read-out: MFC, An ATCC 16404
Outline: (§3)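 CLSI broth microdilution: Ca/Mg-supplemented Mueller-Hinton for bacteria (~5 × 10^5 CFU/mL, 24 h), MOPS-buffered RPMI 1640 pH 7.0 for fungi (Candida ~2.5 × 10^4, Aspergillus 0.4-5 × 10^4 CFU/mL, 48 h), 35°C, 1% DMSO, 64 to 0.12 μg/mL. MIC read visually; MBC/MFC by plating clear wells.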

[5] = tested on: Candida albicans ATCC 90028; test: as above; format: cell-based; settings: for MIC / MFC: Candida albicans; for MIC: ATCC90028, 48 h, read-out: MIC, Ca ATCC 90028; for MFC: ATCC90028, ≥99.9% reduction of original inoculum, read-out: MFC, Ca ATCC 90028
Outline: as §3

[6] = tested on: Aspergillus fumigatus ATCC 16424; test: as above; format: cell-based; settings: for MIC / MFC: Aspergillus fumigatus; for MIC: ATCC16424, 48 h, read-out: MIC, Af ATCC 16424; for MFC: ATCC16424, ≥99.9% reduction of original inoculum, read-out: MFC, Af ATCC 16424
Outline: as §3

[7] = tested on: Candida glabrata ATCC 90030; test: as above; format: cell-based; settings: Nakaseomyces glabratus; for MIC: ATCC90030, 48 h, broth microdilution, 35°C, 48 h, read-out: MIC, Cg ATCC 90030; for MFC: ATCC90030, ≥99.9% reduction of original inoculum, read-out: MFC, Cg ATCC 90030
Outline: as §3

[8] = tested on: L. donovani promastigotes; test: Anti-leishmanial screening at 100 μM, parasite viability by microscopy; format: cell-based, Leishmania donovani; settings: 100 μM, 72 h, phase contrast microscope
Description: as §2
Nitrostyrine series were screened for their antileishmanial activity against L. donovani promastigotes in vitro. Promastigotes of L. donovani (2 × 10^6 cells/mL) in M199 medium were incubated at 22°C for 72 h with each compound at a concentration of 100 μM. Amphotericin B (AmB) served as reference drug, 0.2% DMSO was used as solvent control. Parasites with media alone were taken as control. Parasite viability was determined microscopically after 72 h (Islamuddin et al., [2014b]).

[9] = tested on: Staphylococcus aureus ATCC 29213; test: Broth microdilution antibacterial susceptibility (MIC/MBC); format: cell-based; settings: for MIC / MBC: Staphylococcus aureus; for MIC: ATCC29213, 24 h, read-out: MIC, Sa ATCC 29213; for MBC: ATCC29213, ≥99.9% reduction of original inoculum, read-out: MBC, Sa ATCC 29213
Outline: as §3

[10] = tested on: Pseudomonas aeruginosa ATCC 27853; test: as above; format: cell-based; settings: for MIC / MBC: Pseudomonas aeruginosa; for MIC: ATCC27853, 24 h, read-out: MIC, Pa ATCC 27853; for MBC: ATCC27853, ≥99.9% reduction of original inoculum, read-out: MBC, Pa ATCC 27853
Outline: as §3

[11] = tested on: Escherichia coli ATCC 25922; test: as above; format: cell-based; settings: for MIC / MBC: Escherichia coli; for MIC: ATCC25922, 24 h, read-out: MIC, Ec ATCC 25922; for MBC: ATCC25922, ≥99.9% reduction of original inoculum, read-out: MBC, Ec ATCC 25922
Outline: as §3

[12] = tested on: Staphylococcus epidermidis ATCC 14990; test: as above; format: cell-based; settings: for MIC / MBC: Staphylococcus epidermidis; for MIC: ATCC14990, 24 h, read-out: MIC, Se ATCC 14990; for MBC: ATCC14990, ≥99.9% reduction of original inoculum, read-out: MBC, Se ATCC 14990
Outline: as §3

[13] = broth microdilution, 35°C, 48 h
[14] = broth microdilution, 35°C, 24 h

C[C@@H]1[C@H](O)[C@@H](C)/C=C/C=C/C=C/C=C/C=C/C=C/C=C/[C@H](O[C@@H]2O[C@H](C)[C@@H](O)[C@H](N)[C@@H]2O)C[C@@H]2O[C@](O)(C[C@@H](O)C[C@@H](O)[C@H](O)CC[C@@H](O)C[C@@H](O)CC(=O)O[C@H]1C)C[C@H](O)[C@H]2C(=O)O [AmB, Amphotericin B, reference compound]
IC50 [1]: 27.8 ± 3.26 nM
Leishmanicidal effect (reversion after wash and 72 h in fresh media) [2]: as also observed in positive drug control
IC50 ([3]; Leishmania donovani, 72 h, 22°C, mean from three determinations, read-out: L. donovani promastigotes IC50 ± SEM): 0.0196 ± 0.00171 µM
IC90 ([3]; Leishmania donovani, 72 h, 22°C, mean from three determinations, read-out: L. donovani promastigotes IC90 ± SEM): 82.6 ± 1.36 nM
MIC [4, 13]: 1 µg/mL (≈ 1.08 µM)
MFC [4]: 1 µg/mL (≈ 1.08 µM)
MIC [5, 13]: 0.5 µg/mL (≈ 0.541 µM)
MFC [5]: 0.5 µg/mL (≈ 0.541 µM)
MIC [6, 13]: 0.5 µg/mL (≈ 0.541 µM)
MFC [6]: 1 µg/mL (≈ 1.08 µM)
MIC [7]: 0.5 µg/mL (≈ 0.541 µM)
MFC [7]: 0.5 µg/mL (≈ 0.541 µM)

COc1ccc(/C=C(\C)[N+](=O)[O-])cc1OC [Compound 23, 1,2-dimethoxy-4-((E)-2-nitroprop-1-enyl) benzene]
Parasite viability after treatment [8]: All the parasites were found to be dead
Anti-leishmanial activity, in words (compounds with IC50 determined) [3]: moderate activity
melting point: 70 to 72 °C
MIC [4, 13]: 8 µg/mL (≈ 35.8 µM)
MFC [4]: 8 µg/mL (≈ 35.8 µM)
MIC [5, 13]: 32 µg/mL (≈ 143 µM)
MFC [5]: 32 µg/mL (≈ 143 µM)
MIC [6, 13]: 16 µg/mL (≈ 71.7 µM)
MFC [6]: 16 µg/mL (≈ 71.7 µM)
MIC [7]: 4 µg/mL (≈ 17.9 µM)
MFC [7]: 4 µg/mL (≈ 17.9 µM)
MIC [9, 14]: 8 µg/mL (≈ 35.8 µM)
MBC [9]: 16 µg/mL (≈ 71.7 µM)
MIC [10, 14]: > 64 µg/mL
MBC [10]: > 64 µg/mL
MIC [11, 14]: > 64 µg/mL
MBC [11]: > 64 µg/mL
MIC [12, 14]: 8 µg/mL (≈ 35.8 µM)
MBC [12]: 8 µg/mL (≈ 35.8 µM)

C/C(=C\c1ccc(O)cc1)[N+](=O)[O-] [Compound 17, 4-((E)-2-nitroprop-1-enyl) phenol]
Parasite viability after treatment [8]: All the parasites were found to be dead
Anti-leishmanial activity, in words (compounds with IC50 determined) [3]: moderately active
IC50 ([3]; Leishmania donovani, 72 h, 22°C, values given in μM, read-out: IC50 against promastigotes): 39.4 ± 1.36 µM
melting point: 122 to 124 °C
MIC [4, 13]: 2 to 4 µg/mL (≈ 11.2 to 22.3 µM)
MFC [4]: 4 µg/mL (≈ 22.3 µM)
MIC, An ATCC 16404 [4, 13]: 4 µg/mL (≈ 22.3 µM)
MIC [5, 13]: 4 to 32 µg/mL (≈ 22.3 to 179 µM)
MFC [5]: 8 µg/mL (≈ 44.6 µM)
MIC, Ca ATCC 90028 [5, 13]: 8 µg/mL (≈ 44.6 µM)
MIC [6, 13]: 4 to 8 µg/mL (≈ 22.3 to 44.6 µM)
MFC [6]: 8 µg/mL (≈ 44.6 µM)
MIC, Af ATCC 16424 [6, 13]: 8 µg/mL (≈ 44.6 µM)
MFC [7]: 8 µg/mL (≈ 44.6 µM)
MIC [9, 14]: 2 to 32 µg/mL (≈ 11.2 to 179 µM)
MBC [9]: 4 µg/mL (≈ 22.3 µM)
MIC, Sa ATCC 29213 [9, 14]: 4 µg/mL (≈ 22.3 µM)
MIC [10, 14]: 16 to 32 µg/mL (≈ 89.3 to 179 µM)
MBC [10]: 32 µg/mL (≈ 179 µM)
MIC, Pa ATCC 27853 [10, 14]: 16 µg/mL (≈ 89.3 µM)
MIC [11, 14]: 16 to 32 µg/mL (≈ 89.3 to 179 µM)
MBC [11]: 16 µg/mL (≈ 89.3 µM)
MIC, Ec ATCC 25922 [11, 14]: 16 µg/mL (≈ 89.3 µM)
MIC [12, 14]: 2 to 16 µg/mL (≈ 11.2 to 89.3 µM)
MBC [12]: 2 µg/mL (≈ 11.2 µM)
MIC, Se ATCC 14990 [12, 14]: 2 µg/mL (≈ 11.2 µM)
